In assay [1] the test system is REN (epithelioid) malignant pleural mesothelioma cells. The assay can be described thus: Cell viability assay (Trypan blue dye exclusion), REN. The class given is cell-based, human. As to conditions: 72 h treatment. On the procedure: (§1) Complexes 6–9 were tested on a panel of human MPM cell lines together with CDDP and SAA1, added for comparison (Table 1). The half-maximal inhibitory concentration, IC50, was determined on MSTO-211H (biphasic phenotype), REN (epithelioid), BR95 (epithelioid), and MM98 (sarcomatoid) cancer cell lines to identify the most promising Pt(IV) conjugate to be further investigated. To determine the number of viable cells, the use of the dye exclusion assay was preferred to the colorimetric assay because of the heterogeneity in the energy metabolism between the different MPM cell lines. This may justify minor differences with respect to the previously published IC50 for CDDP [40].
Cells were seeded at a density of 10 × 10^4 cells per well in 6-well plates in RPMI medium supplemented with 10% fetal bovine serum (FBS), 100 μg mL^−1 streptomycin, and 10 μg mL^−1 penicillin and incubated overnight at 37 °C in a humidified environment containing 5% CO2 to allow adherence. Cisplatin was dissolved in 0.9% w/v aqueous NaCl brought to pH = 3 with HCl (final stock concentration 1 mM). The Pt(IV) complexes were dissolved in DMSO (final stock concentration 5 mM); the resulting solutions were microfiltered (0.45 μm) and their Pt content was checked by ICP-MS (see Section 3.5.2). These mother solutions were diluted in complete medium to the required concentration range.
(§2) Following 72 h of treatment with the diluent of the compound (Ctrl) or different doses of the Pt compounds, cells were trypsinized and stained with Trypan blue. The number of cells considered viable (unstained cells) was counted in a Bürker haemocytometer within 5 min after staining.

A further assay deals with T1, PARP-1 (Homo sapiens, UniProt P09874).
T1 construct: endogenous in cells; host or cells: MSTO-211H cells
Briefly: Western blot of poly(ADP-ribose) (PAR) and PARP-1 in MSTO-211H cells. Format: cell-based. The following applies: 5 µM, 72 h. On the procedure:
The effect of the most promising complex 6 on PARP-1 activity was further evaluated. MSTO-211H cells were treated with equimolar concentrations (5 µM) of 6, CDDP, and 3-ABA for 72 h. The two last compounds were used either alone or in combination in a 1:1 molar ratio. Western blot analysis evaluated the expression of poly(ADP-ribose) (PAR), which is the product of PARP-1 activity (Figure 4A).
For protein analysis, cells were extracted with 1% NP-40 lysis buffer (50 mM Tris-HCl pH 8.5 containing 1% NP-40, 150 mM NaCl, 10 mM EDTA, 10 mM NaF, 10 mM Na4P2O7, and 0.4 mM Na3VO4) with freshly added protease inhibitors (10 μg mL^−1 leupeptin, 4 μg mL^−1 pepstatin, and 0.1 U mL^−1 aprotinin). Lysates were centrifuged at 13,000× g for 10 min at 4 °C and the supernatants were collected and assayed for protein concentration with the Bradford assay method (Bio-Rad). Proteins were separated by SDS-PAGE (sodium dodecyl sulfate polyacrylamide gel electrophoresis) under reducing conditions. Following SDS-PAGE, proteins were transferred to nitrocellulose, reacted with specific antibodies, and then detected with peroxidase-conjugate secondary antibodies and chemioluminescent ECL reagent. Digital images were taken with the Bio-Rad ChemiDocTM Touch Imaging System and quantified using Bio-Rad Image Lab 5.2.1.
Figure 4 (A) Representative Western blot showing poly(ADP-ribose) (PAR) and PARP-1 expression following 72 h MSTO-211H cell treatment with diluent (Ctrl) or 5 µM concentrations of cisplatin (CDDP), 6, CDDP + 3-ABA combination (1:1 ratio), and 3-ABA alone. HSC70 protein was used as loading control. (B) Immunocytochemistry was used to capture representative γH2AX focus images following 72 h MSTO-211H cell treatment with diluent (Ctrl) or 5 µM of complex 6.

Assay [2] concerns MSTO-211H multicellular spheroids (MCS). Briefly: Apoptosis in MSTO-211H multicellular spheroids. As to conditions: MSTO-211H MCS, 10 μM, 72 h; spheroid morphology, PARP-1 cleavage, BIM and PUMA induction. Format: cell-based, human. On the procedure: The capability of compound 6 to induce apoptosis was confirmed also when MSTO-211H cells were cultured as multicellular spheroids (MCSs). MCSs and other similar 3D cultures represent an improvement of classical 2D conditions, having a more complex architectural structure and better bio-mimicking of the in vivo microenvironment. Although they suffer many of the limitations of the 2D cultures, they are a powerful tool to narrow down the gap between the in vitro and in vivo models.
Multicellular spheroids were generated in non-adsorbent round-bottomed 96-well plates, as previously described. The 96-well plates were coated with a 1:24 dilution of polyHEMA (120 mg mL^−1) in 95% ethanol and dried at 37 °C for 24 h. Before use, plates were sterilized by UV light for 30 min. For generation of multicellular spheroids, 1 × 10^4 cells were added into each well of a polyHEMA-coated 96-well plate and placed in a 37 °C humidified incubator with 5% CO2. Every 24 h, 50% of supernatant was replaced with fresh medium.
Figure 5 Compound 6 induces apoptosis in MSTO-211H multicellular spheroids (MCS). (A) Representative microscope images of MCS treated for 72 h with diluent (Ctrl) or 10 μM 6. Scale bar = 100 μm. (B) Representative Western blot showing PARP-1 cleavage in MSTO-211H MCS treated with 6. Tubulin was used as loading control. […]

The subject of another assay is human MPM cell lines. The assay can be described thus: Antiproliferative activity on the panel of human MPM cell lines (summary). Format: cell-based. On the procedure:
as §1
Cells were seeded at a density of 10 × 10^4 cells per well in 6-well plates in RPMI medium supplemented with 10% fetal bovine serum (FBS), 100 μg mL^−1 streptomycin, and 10 μg mL^−1 penicillin and incubated overnight at 37 °C in a humidified environment containing 5% CO2 to allow adherence. Cisplatin was dissolved in 0.9% w/v aqueous NaCl brought to pH = 3 with HCl (final stock concentration 1 mM). […]
as §2

T1 sequence (P09874 whole entry): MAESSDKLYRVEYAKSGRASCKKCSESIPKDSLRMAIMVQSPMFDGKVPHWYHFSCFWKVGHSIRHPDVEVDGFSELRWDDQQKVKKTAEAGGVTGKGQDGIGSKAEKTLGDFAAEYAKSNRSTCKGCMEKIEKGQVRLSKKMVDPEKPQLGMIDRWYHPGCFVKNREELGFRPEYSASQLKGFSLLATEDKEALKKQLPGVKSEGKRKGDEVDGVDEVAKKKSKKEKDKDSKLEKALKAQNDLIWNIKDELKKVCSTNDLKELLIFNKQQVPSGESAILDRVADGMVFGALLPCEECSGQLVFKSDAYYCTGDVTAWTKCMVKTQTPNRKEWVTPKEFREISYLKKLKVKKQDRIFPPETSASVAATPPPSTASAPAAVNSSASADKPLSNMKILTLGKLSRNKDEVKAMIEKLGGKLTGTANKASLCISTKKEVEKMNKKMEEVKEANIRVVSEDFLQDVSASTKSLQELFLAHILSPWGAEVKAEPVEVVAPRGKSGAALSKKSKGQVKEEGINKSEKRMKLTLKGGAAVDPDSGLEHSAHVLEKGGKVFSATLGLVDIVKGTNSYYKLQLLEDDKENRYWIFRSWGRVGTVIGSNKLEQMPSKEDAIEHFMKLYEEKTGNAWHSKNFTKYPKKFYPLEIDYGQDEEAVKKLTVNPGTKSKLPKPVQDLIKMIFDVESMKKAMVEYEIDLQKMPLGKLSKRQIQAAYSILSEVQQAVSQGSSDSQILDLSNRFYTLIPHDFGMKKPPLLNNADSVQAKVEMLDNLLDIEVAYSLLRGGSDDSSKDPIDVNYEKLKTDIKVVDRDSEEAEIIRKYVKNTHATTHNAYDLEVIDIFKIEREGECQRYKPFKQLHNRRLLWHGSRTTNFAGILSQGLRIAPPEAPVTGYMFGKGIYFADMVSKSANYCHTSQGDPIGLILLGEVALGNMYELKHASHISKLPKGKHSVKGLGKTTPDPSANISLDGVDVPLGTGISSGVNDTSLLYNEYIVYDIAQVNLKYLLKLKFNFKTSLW

On to `CC(=O)[O][Pt]([NH2])([NH2])([Cl])([Cl])[O]C(=O)CCNC(=O)c1cccc(NC(=O)OCC2c3ccccc3-c3ccccc32)c1` [Compound 6, (OC-6-44)-Acetato[3-(3-(fmoc-amino)-benzamido)-propanoato]-diammine-dichlorido-platinum(IV)], for which the “ratio IC50 (cisplatin)/IC50 (Pt(IV) complex), REN” value in assay [1] was 1.9. In assay [1] (mean ± sd), this molecule had an IC50 of 1.59 ± 0.07 µM. Also, at PARP-1, the PARP-1 cleavage result was “complex 6 alone did” and the “PARP-1 parylation (PAR expression)” value is on record as “No self-parylation of PARP-1”. Moreover, in assay [2], the “apoptosis in multicellular spheroids” value is recorded as “apoptotic death was evidenced”. Further, in the assay on human MPM cell lines, the “ratio between the IC50 of CDDP and the IC50 of the Pt(IV) complex, all cell lines” value was “around 2”.

The values are drawn from publication PMC8402032, “Unsymmetric Cisplatin-Based Pt(IV) Conjugates Containing a PARP-1 Inhibitor Pharmacophore Tested on Malignant Pleural Mesothelioma Cell Lines” (Molecules, 2021).
